Patent US20260335388A1, “COMBINATION THERAPIES WITH ONCOLYTIC ADENOVIRUS AND TOPOISOMERASE I INHIBITORS OR PRODRUGS THEREOF” (priority 2022, published 2026)
pIC50: −log10 of the molar value. Read-outs that look alike come from different tables or passages of the source.

Legend:
[1] = tested on: HSJD-RBT-5 retinoblastoma cells; assay: cells; assay type: cell-based; conditions: Homo sapiens
[2] = tested on: Y79 retinoblastoma cells; assay: cells; assay type: cell-based
[3] = tested on: retinoblastoma cells; assay type: cell-based
[4] = tested on: HSJD-RBVS-10 retinoblastoma cells; assay: cells; assay type: cell-based; conditions: Homo sapiens
[5] = tested on: HSJD-RBT-7 retinoblastoma cells; assay: cells; assay type: cell-based; conditions: Homo sapiens
[6] = tested on: E1a; assay: Immunoblot of E1a / E2F-1 in VCN-01-infected Y79 cells with further chemotherapeutics; assay type: cell-based; conditions: for expression of VCN-01 proteins (E1a): VCN-01 50 MOI, drug added at 24 h, lysis at 48 h (FIG. 7); for expression of E2F-1 and E1A: Y79 cells pre-exposed to VCN-01 (FIG. 13H)
Procedure: 2 million Y79 retinoblastoma cells were infected with 50 MOIs of VCN-01. […] Etoposide is topoisomerase 2 inhibitor.
In all experiments, 6-well culture plates containing 2×10^6 cells were used. […] The experiments were controlled by adding culture medium instead of the second treatment. […] The analyses were expanded to other chemotherapeutic agents including hydroxyurea ([…]), etoposide (2 μM), irinotecan (10 μM) or SN-38 (1 μM).
Near-infrared labeled secondary antibodies (Odyssey CLx, LI-COR Inc. Bad Homburg, Germany) were used for detection.

[7] = tested on: HSJD-NB-005 neuroblastoma; assay: Antitumor activity in neuroblastoma PDX HSJD-NB-005; assay type: in vivo, mouse; conditions: single treatment (FIG. 24D,F)
Procedure: PDX of neuroblastoma (pediatric solid tumor) were implanted subcutaneously into athymic nude mice. Tumor model was HSJD-NB-005. Upon engraftment (tumor volumes ranging 100-500 mm^3), treatments were started. The activity of topotecan vs. irinotecan in combination with VCN-01 was evaluated. The following groups of mice were included in the study, with an n of 6 tumors per group: • Group 1: no treatment • Group 2: topotecan i.p. at 0.6 mg/kg, Day 1-5 • Group 3: irinotecan i.p. at 10 mg/kg, Day 1-5 • Group 4: VCN-01 i.t at 3E9 vp/tumor, Day 1 • Group 5: VCN-01 i.t at 3E9 vp/tumor, Day 1 (morning)+topotecan i.p. at 0.6 mg/kg, Day 1-5 • Group 6: VCN-01 i.t at 3E9 vp/tumor, Day 1 (morning)+irinotecan i.p. at 10 mg/kg, Day 1-5
Antitumor activity in extracranial pediatric solid tumors. 5-10 mm^3 fresh fragments of Ewing sarcoma or neuroblastoma PDX were implanted in both flanks of mice. Upon s.c. engraftment (tumor volume 150-200 mm^3), mice received topotecan (0.6 mg/kg, i.p., days 1-5), VCN-01 (3×10^9 vp in 20 µL vehicle, intratumoral, day 1), or the combination. In two additional groups, an alternative topoisomerase 1 inhibitor, irinotecan (10 mg/kg, i.p., on days 1-5) we used in place of topotecan. Upon completion of treatments, tumor volumes were followed until endpoint (1500 mm^3), or until day 80.

[8] = tested on: Y79 tumors; assay type: in vivo, mouse; conditions: systemic drug after intratumoral VCN-01 3×10E^9 vp/tumor; 5 or 15 days (FIGS. 2A-B)
[9] = tested on: Y79 cells and primary retinoblastoma cultures; assay type: cell-based
[10] = read-out: IC50, Melphalan single agent
[11] = read-out: IC50, Melphalan with VCN-01 (10 MOI)

N[C@@H](Cc1ccc(N(CCCl)CCCl)cc1)C(=O)O [Melphalan, melphalan]
pIC50 [1, 10]: 6.32
pIC50 [1, 11]: 6.20
pIC50 [2, 10]: 5.49
pIC50 [2, 11]: 5.23
cell sensitivity to drug after VCN-01 infection [3]: decreased cell sensitivity
pIC50 [4, 10]: 6.62
pIC50 [4, 11]: 5.69
pIC50 [5, 10]: 5.85
pIC50 [5, 11]: 5.07

COc1cc([C@@H]2c3cc4c(cc3[C@@H](O[C@@H]3O[C@@H]5CO[C@@H](C)O[C@H]5[C@H](O)[C@H]3O)[C@H]3COC(=O)[C@H]23)OCO4)cc(OC)c1O [etoposide]
expression of VCN-01 proteins (E1a) [6]: does not induce the same effect
expression of E2F-1 and E1A [6]: did not modify the levels of these proteins

SN-38
expression of VCN-01 proteins (E1a) [6]: increases expression of VCN-01 proteins
expression of E2F-1 and E1A [6]: increased the expression of E2F-1 and E1A similarly to topotecan

CCc1c2c(nc3ccc(OC(=O)N4CCC(N5CCCCC5)CC4)cc13)-c1cc3c(c(=O)n1C2)COC(=O)[C@]3(O)CC [irinotecan]
expression of VCN-01 proteins (E1a) [6]: does not work in vitro
response of xenograft to single treatment [7]: highly resistant

NC(=O)NO [hydroxyurea]
expression of E2F-1 and E1A [6]: did not modify the levels of these proteins
VCN-01 genome content in tumors [8]: the enhancement of VCN-01 replication in vivo appears to be specific to topotecan
transgene expression, virus first ([9]; cells pre-infected with AdTLRGDK (FIG. 18E, FIG. 19A)): increased transgene expression
viral transduction, drug first ([9]; drug exposure before viral infection (FIG. 18E)): did not enhance viral transduction
